In ChEMBL document CHEMBL3525899, “Identification of the cytochrome P450 and other enzymes involved in the in vitro oxidative metabolism of a novel antidepressant, Lu AA21004” (Drug Metab Dispos, 2012):

Legend:
Cytochrome P450 2C19 [1] = target: T1, Cytochrome P450 2C19 (Homo sapiens, UniProt P33261); assay: Activity of human recombinant CYP2C19 expressed in microsomes isolated from human AHH-1 cells assessed as enzyme-mediated 4-(2-(2,4-dimethylphenylthio)phenyl)piperazin-1-ol formation at 8 to 50 uM after 120 mins by HPLC/MS-MS analysis in presence of NADPH regenerating system with NADP+; type: ADME, cell-free; settings: 2 h
T1 sequence (P33261 whole entry): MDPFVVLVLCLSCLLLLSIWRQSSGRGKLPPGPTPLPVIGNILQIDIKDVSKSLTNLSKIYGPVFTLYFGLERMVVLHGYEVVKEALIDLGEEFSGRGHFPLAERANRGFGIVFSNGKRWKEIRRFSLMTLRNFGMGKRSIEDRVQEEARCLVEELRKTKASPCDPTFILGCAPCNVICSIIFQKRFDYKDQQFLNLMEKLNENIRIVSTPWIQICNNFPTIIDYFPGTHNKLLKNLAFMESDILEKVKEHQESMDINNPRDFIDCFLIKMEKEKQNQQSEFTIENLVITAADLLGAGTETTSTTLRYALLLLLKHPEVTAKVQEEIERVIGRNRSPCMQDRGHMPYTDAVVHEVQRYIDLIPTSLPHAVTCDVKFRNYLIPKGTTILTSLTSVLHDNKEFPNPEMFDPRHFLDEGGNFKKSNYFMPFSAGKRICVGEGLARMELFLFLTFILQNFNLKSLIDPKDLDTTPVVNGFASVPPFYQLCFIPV

Liver microsome [2] = assay: Drug metabolism in pooled human liver microsomes assessed as formation of 3-(2,4-dimethylphenylthio)-4-(piperazin-1-yl)phenol after 30 mins by Michaelis-Menten plot analysis in presence of NADPH regenerating system with NADP+; type: ADME; settings: 0.5 h, read-out: Km(app)
Cytochrome P450 2A6 = target: T2, Cytochrome P450 2A6 (Homo sapiens, UniProt P11509); assay: Activity of human recombinant CYP2A6 expressed in microsomes isolated from human AHH-1 cells assessed as enzyme-mediated 3-(2,4-dimethylphenylthio)-4-(piperazin-1-yl)phenol formation at 8 to 50 uM after 120 mins by HPLC/MS-MS analysis in presence of NADPH regenerating system with NADP+; type: ADME, cell-free; settings: 2 h
T2 sequence (P11509 whole entry): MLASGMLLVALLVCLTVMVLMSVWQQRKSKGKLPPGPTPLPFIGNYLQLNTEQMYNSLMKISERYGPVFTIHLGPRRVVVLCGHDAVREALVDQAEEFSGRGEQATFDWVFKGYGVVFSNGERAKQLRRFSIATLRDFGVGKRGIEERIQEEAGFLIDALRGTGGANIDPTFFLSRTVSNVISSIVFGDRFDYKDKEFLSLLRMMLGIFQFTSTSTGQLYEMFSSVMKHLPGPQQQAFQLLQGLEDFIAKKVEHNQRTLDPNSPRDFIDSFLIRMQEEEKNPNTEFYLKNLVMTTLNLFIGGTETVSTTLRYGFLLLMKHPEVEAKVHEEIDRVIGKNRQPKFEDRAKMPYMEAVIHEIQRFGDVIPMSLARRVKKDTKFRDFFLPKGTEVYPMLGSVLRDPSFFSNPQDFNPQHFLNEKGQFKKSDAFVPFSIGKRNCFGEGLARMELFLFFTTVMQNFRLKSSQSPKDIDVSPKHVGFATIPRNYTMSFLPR

Cytochrome P450 2B6 = target: T3, Cytochrome P450 2B6 (Homo sapiens, UniProt P20813); assay: Activity of human recombinant CYP2B6 expressed in microsomes isolated from human AHH-1 cells assessed as enzyme-mediated 3-(2,4-dimethylphenylthio)-4-(piperazin-1-yl)phenol formation at 8 to 50 uM after 120 mins by HPLC/MS-MS analysis in presence of NADPH regenerating system with NADP+; type: ADME, cell-free; settings: 2 h
T3 sequence (P20813 whole entry): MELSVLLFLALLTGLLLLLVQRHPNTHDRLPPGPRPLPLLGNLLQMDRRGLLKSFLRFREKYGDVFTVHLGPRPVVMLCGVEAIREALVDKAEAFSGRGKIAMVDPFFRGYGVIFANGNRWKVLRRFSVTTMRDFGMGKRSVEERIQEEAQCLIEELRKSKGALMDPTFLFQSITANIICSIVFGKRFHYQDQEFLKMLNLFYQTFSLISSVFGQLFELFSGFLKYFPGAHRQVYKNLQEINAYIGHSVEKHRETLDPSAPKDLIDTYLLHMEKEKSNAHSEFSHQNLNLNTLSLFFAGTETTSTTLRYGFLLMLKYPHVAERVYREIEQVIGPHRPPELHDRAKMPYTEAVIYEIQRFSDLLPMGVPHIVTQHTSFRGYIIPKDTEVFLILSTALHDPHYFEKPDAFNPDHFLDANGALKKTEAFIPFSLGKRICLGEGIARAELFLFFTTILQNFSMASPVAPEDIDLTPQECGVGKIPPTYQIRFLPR

Liver microsome [3] = assay: Drug metabolism in phenotyped human liver microsomes assessed as formation of (3-methyl-4-(2-(piperazin-1-yl)phenylthio)phenyl)methanol at 8 to 50 uM after 60 mins by HPLC/MS-MS analysis in presence of NADPH regenerating system with NADP+; type: ADME; settings: 1 h
Liver microsome [4] = assay: Drug metabolism in phenotyped human liver microsomes assessed as formation of 3-methyl-4-(2-(piperazin-1-yl)phenylthio)benzoic acid at 8 to 50 uM after 60 mins by HPLC/MS-MS analysis in presence of NADPH regenerating system with NADP+; type: ADME; settings: 1 h
Liver microsome [5] = assay: Drug metabolism in phenotyped human liver microsomes assessed as formation of 4-(2-(2,4-dimethylphenylthio)phenyl)piperazin-1-ol at 8 to 50 uM after 60 mins by HPLC/MS-MS analysis in presence of NADPH regenerating system with NADP+; type: ADME; settings: 1 h
Liver microsome [6] = assay: Drug metabolism in phenotyped human liver microsomes assessed as formation of 3-(2,4-dimethylphenylthio)-4-(piperazin-1-yl)phenol at 8 to 50 uM after 60 mins by HPLC/MS-MS analysis in presence of NADPH regenerating system with NADP+; type: ADME; settings: 1 h
Liver microsome [7] = assay: Drug metabolism in pooled human liver microsomes assessed as formation of (3-methyl-4-(2-(piperazin-1-yl)phenylthio)phenyl)methanol at 100 uM after 30 to 180 mins by HPLC/MS-MS analysis in presence of NADPH regenerating system with NADP+; type: ADME
Liver microsome [8] = assay: Drug metabolism in pooled human liver microsomes assessed as formation of 3-methyl-4-(2-(piperazin-1-yl)phenylthio)benzoic acid at 100 uM after 30 to 180 mins by HPLC/MS-MS analysis in presence of NADPH regenerating system with NADP+; type: ADME
Liver microsome [9] = assay: Drug metabolism in pooled human liver microsomes at 100 uM after 30 to 180 mins by HPLC/MS-MS analysis in absence of NADPH regenerating system with NADP+; type: ADME
Liver microsome [10] = assay: Drug metabolism in pooled human liver microsomes at 100 uM after 30 to 180 mins by HPLC/MS-MS analysis in presence of NADPH regenerating system without NADP+; type: ADME
Cytochrome P450 2C19 [11] = target: T1, Cytochrome P450 2C19; assay: Activity of human recombinant CYP2C19 expressed in microsomes isolated from human AHH-1 cells assessed as enzyme-mediated (3-methyl-4-(2-(piperazin-1-yl)phenylthio)phenyl)methanol formation at 8 to 50 uM after 120 mins by HPLC/MS-MS analysis in presence of NADPH regenerating system with NADP+; type: ADME, cell-free; settings: 2 h
Cytochrome P450 2D6 = Cytochrome P450 2D6 (Homo sapiens, UniProt P10635); assay: Activity of human recombinant CYP2D6 expressed in microsomes isolated from human AHH-1 cells assessed as enzyme-mediated 3-methyl-4-(2-(piperazin-1-yl)phenylthio)benzoic acid formation at 8 to 50 uM after 120 mins by HPLC/MS-MS analysis in presence of NADPH regenerating system with NADP+; type: ADME, cell-free; settings: 2 h
Chain of Cytochrome P450 2D6 (P10635 whole entry): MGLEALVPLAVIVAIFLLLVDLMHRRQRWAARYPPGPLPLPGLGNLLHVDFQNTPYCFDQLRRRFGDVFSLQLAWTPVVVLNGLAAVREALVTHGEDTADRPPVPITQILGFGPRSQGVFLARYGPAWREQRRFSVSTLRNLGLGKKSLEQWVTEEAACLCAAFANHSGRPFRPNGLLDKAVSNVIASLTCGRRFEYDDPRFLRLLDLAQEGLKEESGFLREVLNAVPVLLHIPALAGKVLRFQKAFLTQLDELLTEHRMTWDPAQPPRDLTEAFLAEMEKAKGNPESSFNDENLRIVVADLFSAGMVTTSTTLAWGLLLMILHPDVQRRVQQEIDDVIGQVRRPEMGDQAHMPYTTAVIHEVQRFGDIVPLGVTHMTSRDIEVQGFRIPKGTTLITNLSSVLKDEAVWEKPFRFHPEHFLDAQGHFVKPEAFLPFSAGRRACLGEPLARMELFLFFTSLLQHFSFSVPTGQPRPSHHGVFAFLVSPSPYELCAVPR

Br.Cc1ccc(Sc2ccccc2N2CCNCC2)c(C)c1 [VORTIOXETINE HYDROBROMIDE]
metabolite_not_detected: Drug metabolism (Cytochrome P450 2A6) | Drug metabolism (Cytochrome P450 2B6) | Drug metabolism (Liver microsome [9]) | Drug metabolism (Liver microsome [10])
metabolite_detected: Drug metabolism (Cytochrome P450 2C19 [1]) | Drug metabolism (Liver microsome [3]) | Drug metabolism (Liver microsome [4]) | Drug metabolism (Liver microsome [5]) | Drug metabolism (Liver microsome [6]) | Drug metabolism (Liver microsome [7]) | Drug metabolism (Liver microsome [8]) | Drug metabolism (Cytochrome P450 2C19 [11]) | Drug metabolism (Cytochrome P450 2D6)
323 µM: Km (Liver microsome [2])
